Results reported in US20240360146A1, “BRUTON'S TYROSINE KINASE AND MUTANT DEGRADER, COMPOSITION AND APPLICATION THEREOF” (HANGZHOU HEALZEN THERAPEUTICS CO., LTD., priority 2021, published 2024).

Tests used:
BTK = molecular target: T1, BTK (Homo sapiens, UniProt Q06187); assay: BTK degradation activity test in Mino cells; type: cell-based; conditions: 16 h incubation, Western blot or Elisa
T1 construct: endogenous in cells; host or cells: Mino cells
Outline: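 DC50 derived by curve fitting of BTK degradation rates versus untreated control across compound concentrations. Mino cells were exposed for 16 h; BTK levels in lysates, normalised via BCA protein, measured by Western blot or ELISA.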

OCI-LY10 cells = assay: Inhibitory activity on OCI-LY10 cell proliferation (MTS); type: cell-based; conditions: Homo sapiens, 72 h
Outline: (§1)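 Cells seeded at 10000/well, treated with compounds from 1000 nM (4-fold, 8 points) for 72 h (OCI-LY10) or 168 h (Mino) at 37° C. MTS added for 2 h, stopped with SDS, absorbance read at 490 and 650 nm; IC50 from dose-response fit.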

Mino cells = assay: Inhibitory activity on Mino cell proliferation (MTS); type: cell-based; conditions: Homo sapiens, 168 h incubation
Outline: as §1

[1] = Stability of compounds in human liver microsome; type: in vitro ADME; conditions: human liver microsomes, NADPH, 37° C., sampling 0-120 min; read-out: Human liver microsome T1/2
Experimental: Compound to be tested: the compound to be tested (1 mg) was dissolved in DMSO (10 mL) to formulate to 0.1 mg/mL.
Internal standard compound: the internal standard compound (1 mg) was dissolved in DMSO (10 mL), 10 μL was taken and diluted to 10 mL to formulate to 100 ng/mL.
NADPH solution: NADPH (2.08 mg) was dissolved in PBS (50 μL) buffer to formulate to 50 mM.
Under the condition of ice bath, 1 mg of human liver microparticles was add to PBS (1 mL) buffer, then NADPH (20 μL) was added, and incubated at 37° C. for 5 min. 10 μL of the compound to be tested was added, and then samples were taken at 0, 15, 30, 60 and 120 min respectively. 10 μL of the solution was taken with a pipette each time and added to 490 μL of the solution containing the internal standard compound. The resulting solution was vortexed and then placed on ice, and then sampling at another time point continues. All samples were centrifuged at 10,000 rpm for 10 min, and the supernatant was taken for LC/MS testing. The metabolism of the compound in liver microsomes was calculated based on the peak area.

T1 sequence (Q06187 whole entry): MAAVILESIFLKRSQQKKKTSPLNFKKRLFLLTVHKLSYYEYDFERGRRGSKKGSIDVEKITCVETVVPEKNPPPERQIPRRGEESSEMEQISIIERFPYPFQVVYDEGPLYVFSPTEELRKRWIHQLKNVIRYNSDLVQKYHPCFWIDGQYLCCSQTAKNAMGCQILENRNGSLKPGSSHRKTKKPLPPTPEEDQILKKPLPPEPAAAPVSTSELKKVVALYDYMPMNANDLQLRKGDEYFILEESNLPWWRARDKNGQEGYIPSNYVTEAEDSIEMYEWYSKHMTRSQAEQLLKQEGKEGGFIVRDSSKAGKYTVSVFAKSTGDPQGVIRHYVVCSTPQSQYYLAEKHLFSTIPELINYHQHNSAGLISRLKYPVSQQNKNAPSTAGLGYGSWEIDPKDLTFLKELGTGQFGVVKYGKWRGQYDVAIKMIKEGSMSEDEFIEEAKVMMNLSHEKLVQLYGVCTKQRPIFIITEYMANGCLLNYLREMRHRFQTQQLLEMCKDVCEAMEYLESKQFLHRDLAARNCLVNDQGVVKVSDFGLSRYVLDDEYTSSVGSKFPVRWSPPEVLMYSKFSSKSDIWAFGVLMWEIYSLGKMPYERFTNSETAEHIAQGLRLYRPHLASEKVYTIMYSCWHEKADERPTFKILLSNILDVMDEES

| Compound | DC50 (BTK) | IC50 (OCI-LY10 cells) | IC50 (Mino cells) | half-life at 0.97 µg/mL [1] |
| --- | --- | --- | --- | --- |
| COc1ccc(C(=O)N2CCC(CN3CCN(c4ccc(Nc5nc(N6CCC[C@@H](N7CCN(C)C7=O)C6)nnc5C(N)=O)cc4F)CC3)C2)cc1N1CCC(=O)NC1=O (stereo partly drawn) [Compound 149, 5-((4-(4-((1-(3-(2,4-dioxotetrahydropyrimidin-1(2H)-yl)-4-methoxybenzoyl)pyrrolidin-3-yl)methyl)piperazin-1-yl)-3-fluorophenyl)amino)-3-((R)-3-(3-methyl-2-oxoimidazolin-1-yl)piperidin-1-yl)-1,2,4-triazin-6-carboxamide] | < 1 nM | 2.6 nM | 8.89 nM | > 30 min |
| CN1CCN([C@@H]2CCCN(c3nnc(C(N)=O)c(Nc4ccc(N5CCN(CC6CCN(c7ccc(N8CCC(=O)NC8=O)cc7)C6)CC5)c(F)c4)n3)C2)C1=O (stereo partly drawn) [Compound 147, 5-((4-(4-((1-(4-(2,4-dioxotetrahydropyrimidin-1(2H)-yl)phenyl)pyrrolidin-3-yl)methyl)piperazin-1-yl)-3-fluorophenyl)amino)-3-((R)-3-(3-methyl-2-oxoimidazolin-1-yl)piperidin-1-yl)-1,2,4-triazin-6-carboxamide] | < 1 nM | 1.48 nM | 0.54 nM | > 30 min |
| NC(=O)c1nnc(N2CC3CC(N4C(=O)c5ccccc5C4=O)C2C3)nc1Nc1ccc(C2CCN(CC3CCN(c4ccc5c(c4)C(=O)N(C4CCC(=O)NC4=O)C5=O)CC3)CC2)cc1 (centres unmarked) [Compound 143, 3-(6-(1,3-dioxoisoindolin-2-yl)-2-azabicyclo[2.2.1]heptan-2-yl)-5-((4-(1-((1-(2-(2,6-dioxopiperidin-3-yl)-1,3-dioxoisoindolin-5-yl)piperidin-4-yl)methyl)piperidin-4-yl)phenyl)amino)-1,2,4-triazin-6-carboxamide] | < 1 nM | 0.33 nM | 3.08 nM | 39.1 min |
| CN1CCN([C@@H]2CCCN(c3nnc(C(N)=O)c(Nc4ccc(N5CCN(CC6CCN(c7ccc(C(=O)N[C@H]8CCC(=O)NC8=O)c(F)c7)CC6)CC5)c(F)c4)n3)C2)C1=O [Compound 172, 5-((4-(4-((1-(4-(((S)-2,6-dioxopiperidin-3-yl)carbamoyl)-3-fluorophenyl)piperidin-4-yl)methyl)piperazin-1-yl)-3-fluorophenyl)amino)-3-((R)-3-(3-methyl-2-oxoimidazolidin-1-yl)piperidin-1-yl)-1,2,4-triazin-6-carboxamide] | < 1 nM | 2.39 nM | 6.2 nM | > 30 min |
| CN1CCN([C@@H]2CCCN(c3nnc(C(N)=O)c(Nc4ccc(C5CCN(CC6CCN(c7ccc8c(c7)C(=O)N(C7CCC(=O)NC7=O)C8=O)C6)CC5)c(F)c4)n3)C2)C1=O (stereo partly drawn) [Compound 128, 5-((4-(1-((1-(2-(2,6-dioxopiperidin-3-yl)-1,3-dioxoisoindolin-5-yl)pyrrolidin-3-yl)methyl)piperidin-4-yl)-3-fluorophenyl)amino)-3-((R)-3-(3-methyl-2-oxoimidazolin-1-yl)piperidin-1-yl)-1,2,4-triazin-6-carboxamide] | < 1 nM | 0.37 nM | 1.93 nM | 43.2 min |
| CN1CCN([C@@H]2CCCN(c3nnc(C(N)=O)c(Nc4ccc(N5CCN(CC6CCN(c7ccc(C(=O)NC8CCC(=O)NC8=O)cn7)C6)CC5)c(F)c4)n3)C2)C1=O (stereo partly drawn) [Compound 174, 5-((4-(4-((1-(5-((2,6-dioxopiperidin-3-yl)carbamoyl)pyridin-2-yl)pyrrolidin-3-yl)methyl)piperazin-1-yl)-3-fluorophenyl)amino)-3-((R)-3-(3-methyl-2-oxoimidazolidin-1-yl)piperidin-1-yl)-1,2,4-triazin-6-carboxamide] | < 1 nM | 1.03 nM |  | > 30 min |
